Biological target: T1, G1 APOL1 (Homo sapiens, UniProt O14791, I384M/S342G)
T1 construct: expressed in transfected cells
T1 sequence (O14791 28-398 S342G/I384M): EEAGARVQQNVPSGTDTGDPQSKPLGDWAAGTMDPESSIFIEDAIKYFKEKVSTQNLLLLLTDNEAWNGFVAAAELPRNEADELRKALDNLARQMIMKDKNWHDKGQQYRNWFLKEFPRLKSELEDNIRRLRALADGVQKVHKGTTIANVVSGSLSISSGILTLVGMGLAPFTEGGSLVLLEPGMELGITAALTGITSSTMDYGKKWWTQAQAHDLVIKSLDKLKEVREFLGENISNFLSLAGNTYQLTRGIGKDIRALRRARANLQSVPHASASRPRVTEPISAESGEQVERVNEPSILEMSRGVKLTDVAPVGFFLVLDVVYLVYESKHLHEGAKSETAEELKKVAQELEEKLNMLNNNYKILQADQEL
Assay: Acute APOL1 Thallium Assay with inducible stable clones of HEK 293 cells
Assay type: cell-based
Conditions: HEK 293 T-Rex cells expressing G1 APOL1; read-out: Thallium Assay (IC50)
In short: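 Readout: Tl+-triggered fluorescence, FLIPR, reflecting potassium flux through APOL1 pores after cells take up an AM-ester thallium indicator. Cells: HEK T-Rex stable clone G1 DC3.25, APOL1 G1 induced by tetracycline, seeded 26000 per well.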

IC50 [nM]	SMILES
> 1000	O=C([C@H]1C[C@H](c2c(-c3ccc(F)cc3)[nH]c3c(F)cc(F)cc32)C1)N1CCOC[C@H]1CO [Compound 217]
250 to 1000	CC[C@@H](CO)NC(=O)[C@H]1C[C@H](c2c(-c3ccc(F)cc3)[nH]c3c(F)cc(F)cc32)C1 [Compound 204]
250 to 1000	C[C@@H](NC(=O)[C@H]1C[C@H](c2c(-c3ccc(F)cc3)[nH]c3c(F)cc(F)cc32)C1)C(N)=O [Compound 28]
> 1000	CS(=O)(=O)NC(=O)[C@H]1C[C@H](c2c(-c3ccc(F)cc3)[nH]c3c(F)cc(F)cc32)C1 [Compound 213]
250 to 1000	O=C(NC[C@H](O)C(F)(F)F)[C@H]1C[C@H](c2c(-c3ccc(F)cc3)[nH]c3c(F)cc(F)cc32)C1 [Compound 176]
> 1000	CC1CC(NC(=O)[C@H]2C[C@H](c3c(-c4ccc(F)cc4)[nH]c4c(F)cc(F)cc43)C2)C(=O)O1 (stereo partly shown) [Compound 207]
> 1000	O=C([C@H]1C[C@H](c2c(-c3ccc(F)cc3)[nH]c3c(F)cc(F)cc32)C1)N1C[C@@H](O)[C@H](O)C1 [Compound 227]
> 1000	O=C(NC1CCOC1)[C@H]1C[C@H](c2c(-c3ccc(F)cc3)[nH]c3c(F)cc(F)cc32)C1 (stereo partly shown) [Compound 15]
250 to 1000	O=C([C@H]1C[C@H](c2c(-c3ccc(F)cc3)[nH]c3c(F)cc(F)cc32)C1)N1CCOC[C@@H]1CO [Compound 219]
> 1000	COC[C@@H]1CCN1C(=O)[C@H]1C[C@H](c2c(-c3ccc(F)cc3)[nH]c3c(F)cc(F)cc32)C1 [Compound 220]
< 250	CC(CO)NC(=O)[C@H]1C[C@H](c2c(-c3ccc(F)cc3)[nH]c3c(F)cc(F)cc32)C1 (mixture of isomers) [Compound 13]

The next lines start with the molecule.

SMILES	IC50 [nM]
COC1CC1NC(=O)[C@H]1C[C@H](c2c(-c3ccc(F)cc3)[nH]c3c(F)cc(F)cc32)C1 (stereo partly shown) [Compound 18]	> 1000
CN(C(=O)[C@H]1C[C@H](c2c(-c3ccc(F)cc3)[nH]c3c(F)cc(F)cc32)C1)C1COCC1O (stereo partly shown) [Compound 205]	> 1000
O=C(NC[C@@H](O)C(F)(F)F)[C@H]1C[C@H](c2c(-c3ccc(F)cc3)[nH]c3c(F)cc(F)cc32)C1 [Compound 177]	250 to 1000
CC(C)(CO)NC(=O)[C@H]1C[C@H](c2c(-c3ccc(F)cc3)[nH]c3c(F)cc(F)cc32)C1 [Compound 31]	< 250
CC(C#N)(CO)NC(=O)[C@H]1C[C@H](c2c(-c3ccc(F)cc3)[nH]c3c(F)cc(F)cc32)C1 (stereo partly shown) [Compound 191]	250 to 1000
CS(=O)(=O)CCNC(=O)[C@H]1C[C@H](c2c(-c3ccc(F)cc3)[nH]c3c(F)cc(F)cc32)C1 [Compound 40]	250 to 1000
O=C(N[C@H]1CNC[C@@H]1O)[C@H]1C[C@H](c2c(-c3ccc(F)cc3)[nH]c3c(F)cc(F)cc32)C1 [Compound 212]	> 1000
O=C1OCC[C@@H]1NC(=O)[C@H]1C[C@H](c2c(-c3ccc(F)cc3)[nH]c3c(F)cc(F)cc32)C1 [Compound 188]	250 to 1000

Source: US12116343B2, “Inhibitors of APOL1 and methods of using same” (Vertex Pharmaceuticals Incorporated, priority 2020, dated 2024)
